Earlier results in US20040170688A1, “Enteric formulation of fluoxetin” (priority 2001, published 2004).

Details: published literature

elimination half-life	SMILES
very long	NCCC(Oc1ccc(C(F)(F)F)cc1)c1ccccc1 (centres unmarked) [NorFluoxetin]
very long	CNCCC(Oc1ccc(C(F)(F)F)cc1)c1ccccc1 (stereo not drawn) [Fluoxetin, N-Methyl-3-phenyl-3-[(α,α,α-trifluorotolyl)oxyl] propylamine]
